{"source": "patent US8927498B2", "about": "“Compositions and methods useful in enhancement of memory” (The Translational Genomics Research Institute, priority 2010, dated 2015)", "key": {"FILIP1": {"tested_on": "FILIP1", "assay": "RT-PCR validation of FILIP1 (normalized to GAPDH)", "assay_type": "in vivo, rat", "conditions": "n = 9; vehicle 1.28", "source_text": "(§1) Following sacrifice, the left hippocampus was utilized for genome-wide expression profiling. […] These included Adcyap1 with fold change (FC) of 1.5, and p=0.029, Tiam1 with FC of −1.5 and p=0.028, and Filip1 with FC of −1.75 and p=0.032 (Table 1). The RT-PCR validation of the fold change of FILIP1 and Tiam1 is shown in Table 2 and Table 3, respectively."}, "[1]": {"tested_on": "seventeen-month-old Fischer-344 male rats (aged rat model of cognitive decline)", "assay": "water-escape radial arm maze, spatial working memory", "assay_type": "in vivo", "conditions": "17-month-old Fischer-344 male rats, 1 mg/kg/day, vs vehicle (saline)", "method": "(§2) In one embodiment of the present disclosed invention, the transduction complex comprises a fusion peptide including a TAT protein transduction domain and residues surrounding two known serine phosphorylation targets (Ser159 and Ser163) within MARCKS (SEQ ID NO: 3). The compound was administered to seventeen-month-old rats and behavioral spatial working memory of the rats was assessed by behavior testing. […] Such assays include, without limitation, the Morris water maze and the radial arm water maze, plus maze. For example, when employing the Morris water maze, a rat is trained to swim to a submerged platform. The rat can then be treated with an agent at a particular dose for a particular duration. Following treatment, the mean escape latency (i.e., time to find platform) is measured and compared to the mean escape latency of a control. […] Following treatment, the ability of the rat to remember a newly-learned path is measured and compared to that of a control. […] In the water Plus Maze test, the variables measured include the percentage of time spent in the open and closed areas of the maze, the latency to leave the central platform, the total number of crossings between the various open and closed areas of the maze, and the number of crossings into the open areas of the maze divided by the total number of crossings. […]"}, "[2]": {"tested_on": "hippocampal expression of candidate genes", "assay": "hippocampal expression of candidate genes, Illumina RatRef-12 expression BeadChip", "assay_type": "in vivo, rat", "source_text": "as §1"}, "Tiam1": {"tested_on": "Tiam1", "assay": "RT-PCR validation of Tiam1 normalized to GADPH", "assay_type": "in vivo, rat", "conditions": "n = 9; vehicle 1.02", "source_text": "as §1"}, "[3]": {"tested_on": "seventeen-month-old Fischer-344 male rats (aged rat model of cognitive decline)", "assay": "water-escape plus maze, spatial working memory", "assay_type": "in vivo", "conditions": "17-month-old Fischer-344 male rats, 1 mg/kg/day, vs vehicle (saline), n=9", "method": "as §2"}, "[4]": {"conditions": "hippocampus, treated vs. vehicle rats, Mann-Whitney"}, "[5]": {"conditions": "hippocampus, treated vs. vehicle rats, T-Test"}, "[6]": {"conditions": "left hippocampus, genome-wide expression profiling"}}, "note": "Entries after “also recorded” stand apart in the source; their conditions may differ.", "data": [{"substance": "SEQ ID NO: 1: fusion peptide including a TAT protein transduction domain and residues surrounding two known serine phosphorylation targets (Ser159 and Ser163) within MARCKS (YGRKKRRQRRRCKRFSFKKSFKLSGFSFKK; TAT MARCKS fusion)", "values": [{"measurement": "RT-PCR FILIP1 Average (normalized to GAPDH)", "setting": "FILIP1", "value": 1.20}, {"measurement": "working memory performance in water-escape radial arm maze", "setting": "[1]; n=9", "value": "better able to process multiple items of information; also recorded: enhanced working memory performance"}, {"measurement": "working memory performance in water-escape radial arm maze", "setting": "[1]; n=9, listed as MARCKS peptide decoy", "value": "better performance in the radial arm water maze"}, {"measurement": "Fold Change Filip1", "setting": "[2]; [4]", "value": "−1.747"}, {"measurement": "Fold Change Gna1", "setting": "[2]; [4]", "value": "−1.534"}, {"measurement": "Fold Change Ptpro", "setting": "[2]; [4]", "value": "−1.708"}, {"measurement": "Fold Change Tiam1", "setting": "[2]; [4]", "value": "−1.510"}, {"measurement": "Fold Change Tp53i11_predicted", "setting": "[2]; [4]", "value": "−1.581"}, {"measurement": "Fold Change Adcyap1", "setting": "[2]; [5]", "value": 1.554}, {"measurement": "Fold Change Filip1", "setting": "[2]; [5]", "value": "−1.747"}, {"measurement": "Fold Change LOC501145", "setting": "[2]; [5]", "value": 1.566}, {"measurement": "Fold Change Perp_predicted", "setting": "[2]; [5]", "value": "−1.647"}, {"measurement": "Fold Change Tiam1", "setting": "[2]; [5]", "value": "−1.499"}, {"measurement": "Fold Change Tp53i11_predicted", "setting": "[2]; [5]", "value": "−1.554"}, {"measurement": "fold change (FC) Adcyap1", "setting": "[2]; [6]", "value": 1.5}, {"measurement": "fold change (FC) Filip1", "setting": "[2]; [6]", "value": "−1.75"}, {"measurement": "fold change (FC) Tiam1", "setting": "[2]; [6]", "value": "−1.5"}, {"measurement": "RT-PCR Tiam1 Average normalized to GADPH", "setting": "Tiam1", "value": 0.89}, {"measurement": "working memory performance in water-escape plus maze", "setting": "[3]", "value": "acquired the plus maze task at a faster rate; also recorded: enhanced working memory performance"}]}]}
